{"source": "patent US20230277669A1", "about": "“USES OF UROLITHINS” (Amazentis SA, priority 2022, published 2023)", "key": {"[1]": {"settings": "commercially-available supplements containing urolithin A; cited from earlier work"}, "[2]": {"system": "CD8+ T cells", "test": "In vitro stimulation of CD3+ T cells with aCD3/aCD28 beads in presence of UA", "type": "cell-based, FVB mice", "procedure": "(§1) (FIG. 2A) Scheme of CD3+ T-cell activation and analysis for various timepoints. (FIG. 2B) Reduced effector molecule expression on in vitro treated cells (n=3 pooled from three independent experiments). Isolated T-cells were stimulated for 48 h at the presence of UA or DMSO in the indicated doses. Data are mean ± SD, *p < 0.05 by two-sided t-test. (FIG. 2C) Reduced effector molecule expression on in vitro treated cells (n=3 pooled from three independent experiments). Isolated T-cells were stimulated for 48 h at the presence of UA or DMSO in the indicated doses. Data are mean ± SD, *p < 0.05 by two-sided t-test. (FIG. 2D) Quantification of T memory stem cells (TSCM: CD44^-CD62L^+Sca1^hi) after 24 h, 48 h and 96 h post stimulation with aCD3/aCD28 stimulation beads as indicated in (A) (n=4 pooled from four independent experiments). Data are mean ± SD, statistical analysis was performed via two-sided t-test (*p < 0.05; **p < 0.01; n.s. not significant). (FIG. 2E) Mitochondrial membrane potential within naïve CD62L^+CD44^-CD8^+ T cells, with TMRM^lo representing cells with low mitochondrial membrane potential. Cells were stimulated for 48 h as depicted in (A). Data are mean ± SD, n=4; ***p <0.001 by two-sided t-test. Experiment was repeated twice in independent experiments. (FIG. 2F) Representative histogram and quantification of memory marker CD95 expression in CD62L^+CD44^-CD8^+ cells, 48 hours after in vitro stimulation. Data are mean ± SD; n=5; ****p < 0.0001 by two-sided t-test. Data depicts one of two independent experiments. (FIG. 2G) Analysis of TIL of UA-fed mice, treated as depicted in FIG. 1J. Percentage of TSCM within CD8+ (G; n=7), as well as TCF1 (H; n=7) PD1^hi,Tim3^hi and CTLA4hi (I-K, all n=6) in the TIL CD8+ population are shown. Data are mean ± SD, statistical analysis was performed via two-sided t-test (*p < 0.05; **p < 0.01;, ***p <0.001.). Data depicts one of two independent experiments. (FIG. 2H) The same experiment as FIG. 2G with TCF1 (n=7) in the TIL CD8+ population. (FIG. 2I) The same experiment as FIG. 2G with PD1^hi (n=6) in the TIL CD8+ population. (FIG. 2J) The same experiment as FIG. 2G with Tim3^hi (n=6) in the TIL CD8+ population. (FIG. 2K) The same experiment as FIG. 2G with CTLA4hi (n=6) in the TIL CD8+ population. (FIG. 2L) Flow cytometry readout of ex vivo cytokine release of previously isolated TIL upon re-stimulation with PMA/ionomycin. Data are mean ± SD with n=7 per group. Statistical analysis was performed by two-sided t-test (**p < 0.01). One out of two independent experiments are shown. (FIG. 2M) Flow cytometry readout of ex vivo cytokine release of previously isolated TIL upon re-stimulation with PMA/ionomycin. Data are mean ± SD with n=7 per group. Statistical analysis was performed by two-sided t-test (**p < 0.01). One out of two independent experiments are shown.\n(FIG. 4A) Scheme of CD3+ T-cell activation and analysis for various timepoints in order to investigate mitophagy induction in vitro. (FIG. 4B) Analysis of mitochondrial membrane potential within CD8+ T cells, with TMRM^lo representing cells with low mitochondrial membrane potential. Analysis was performed six hours after stimulation with aCD/aCD28 stimulation beads at the presence of the indicated treatments. N=4 per group, *p < 0.05 by Mann Whitney U test. One of two independent experiments are shown. (FIG. 4C) Representative flow histogram and quantification of lysosome formation in CD8+ cells six hours after in vitro stimulation. MFI shown relative to DMSO controls, n=4. Data are normalised mean ± SD, statistical analysis by two-sided t-test. One out of two independent experiments are shown. (FIG. 4D) Mitotracker Red staining of in vitro stimulated CD8+ cells after 24 hours of Urolithin A (UA25 n=6; UA50 n=6) or vehicle control treatment (DMSO: n=4). A representative flow histogram depicting identification of Mitotracker^hi cells is shown. […]"}, "[3]": {"system": "TIL CD8+ population", "test": "Flow cytometry analysis of TIL of UA-fed mice with APTK tumors", "type": "in vivo, C57BL/6 mice", "procedure": "as §1\n(FIG. 5L) UA induces PGC-1α expression in stimulated CD8+ cells. PGC-1α MFI at 48 h upon stimulation, as assessed by intracellular staining, is shown (n=3). One of two independent experiments are shown. Data are mean ± SD, statistical analysis was performed by two-sided t-test (p**<0.01). (FIG. 5M) Mitochondrial content of TIL CD8+ cells harvested from APTK-carrying mice, fed UA or control diet as depicted in FIG. 1J. Assessed by Mitotracker Red staining. Data are mean ± SD, *p < 0.05 by two-sided t-test. (FIG. 5N) Mitophagy and subsequent PGAM5 release drive PGC-1α upregulation. PGC-1α expression of CD8+ cells derived from Pink1^-/- KO mice upon 48 h stimulation in vitro in the presence of UA or DMSO control (n=4). Data are mean ± SD, statistical analysis was performed by two-sided t-test. Depicts one of two independent experiments. (FIG. 5O) Mitophagy and subsequent PGAM5 release drive PGC-1 α upregulation. PGC-1α expression of CD8+ cells derived from PGAM5^-^/- mice upon 48 h stimulation in vitro in the presence of UA or DMSO control (n=4). Data are mean ± SD, statistical analysis was performed by two-sided t-test. […]"}, "[4]": {"settings": "ex vivo restimulation with PMA/ionomycin"}}}
{"molecule": "O=c1oc2cc(O)ccc2c2ccc(O)cc12", "note": "[Urolithin A]", "values": [{"measurement": "bioavailability profile", "setting": "[1]", "value": "favourable bioavailability profile"}, {"measurement": "safety", "setting": "[1]", "value": "deemed safe"}, {"measurement": "number of CD44-CD62L+Sca1hi TSCM", "setting": "[2]; 24 h, 48 h and 96 h post stimulation", "value": "in a dose dependent manner to a significantly increased number"}, {"measurement": "loss of mitochondrial content per T cell subset (TSCM, TCM, TEFF)", "setting": "[2]; 24 hours, 50 µM Urolithin A", "value": "deteted in all T cell subsets analyzed"}, {"measurement": "mitochondrial content (Mitotracker Red) in CD8+ cells", "setting": "[2]; 24 hours, UA25, UA50", "value": "loss of mitochondrial content in a dose-dependent manner"}, {"measurement": "TSCM formation, stimulated vs unstimulated CD8+ cells", "setting": "[2]; 48 h, aCD3/CD28 beads +-UA or unstimulated", "value": "only formed in activated T cells"}, {"measurement": "PGC-1 expression in CD8+ cells", "setting": "[2]; 48 h, prolonged UA administration in vitro", "value": "marked upregulation of PGC-1"}, {"measurement": "CD95 expression in CD62L+CD44-CD8+ cells", "setting": "[2]; 48 hours after stimulation", "value": "increased CD95 expression"}, {"measurement": "TCF1 expression", "setting": "[2]; 48 h stimulation", "value": "high expression of TCF1"}, {"measurement": "cyclin D1 expression", "setting": "[2]; 48 h stimulation", "value": "reduced cyclin D1 expression"}, {"measurement": "differentiation into effector T cells (effector molecule expression)", "setting": "[2]; 48 h stimulation", "value": "blocked differentiation into effector T cells"}, {"measurement": "mitochondrial membrane potential (TMRM) in naive CD62L+CD44-CD8+ T cells", "setting": "[2]; 48 h stimulation", "value": "reduced mitochondrial membrane potential"}, {"measurement": "naive CD44loCD62Lhi T cells", "setting": "[2]; 48 h stimulation, different doses of UA", "value": "significant increase"}, {"measurement": "CD8+ T cell division (CTV staining)", "setting": "[2]; 72 h stimulation", "value": "restricted CD8+T cell division in a dose-dependent manner"}, {"measurement": "mitochondrial membrane potential in CD8+ T cells", "setting": "[2]; six hours after UA administration", "value": "reduction of mitochondrial membrane potential"}, {"measurement": "lysosome formation in CD8+ cells", "setting": "[2]; six hours after stimulation", "value": "enhanced lysosome formation"}, {"measurement": "mitochondrial content in TIL of APTK tumors", "setting": "[3]; UA or control diet", "value": "increased mitochondrial content"}, {"measurement": "CD8+CD44loCD62LhiSca1hi T cells (TSCM) in APTK-induced tumors", "setting": "[3]; UA-fed mice", "value": "marked increase"}, {"measurement": "TCF1 expression in tumor infiltrating CD8+ T cells", "setting": "[3]; UA-fed mice", "value": "increased expression"}, {"measurement": "dendritic cells (DCs), TAMs, MDSC subsets in TME", "setting": "[3]; UA-fed mice", "value": "no change"}, {"measurement": "exhaustion marker CTLA-4 in CD8+ T cells", "setting": "[3]; UA-fed mice", "value": "reduction"}, {"measurement": "exhaustion marker PD-1 in CD8+ T cells", "setting": "[3]; UA-fed mice", "value": "reduction"}, {"measurement": "exhaustion marker Tim3 in CD8+ T cells", "setting": "[3]; UA-fed mice", "value": "reduction"}, {"measurement": "IFNg induction in tumor infiltrating CD8+ T cells", "setting": "[3]; [4]", "value": "stronger induction"}, {"measurement": "TNFa induction in tumor infiltrating CD8+ T cells", "setting": "[3]; [4]", "value": "stronger induction"}]}
